Measured values reported in patent US20250296971A1, “GASTRIC INHIBITORY PEPTIDE RECEPTOR LIGANDS” (priority 2021, published 2025).
pIC50: −log10 of the molar value. Read-outs that look alike come from different tables or passages of the source. *1 amine or outer side, *2 acyl side, *3 side chain or, on linkers, in order; H or OH if unused. Where a SMILES comes first, the peptide text is derived from it. Bridges are numbered along the chain shown (N, C = ends). [ ]: non-standard residue; d: D form. The star is where a group is joined. ξ: configuration not given here. X5 = NC(=O)[C@H](CCCCNC(=O)CN1CCN(CC(=O)O)CCN(CC(=O)O)CCN(CC(=O)O)CC1)NC(=O)CCC(=O)NCCCOCCOCCOCCCN*; X3 = O=C(O)CN1CCN(CC(=O)O)CCN(CC(=O)NCCCOCCOCCOCCCN*)CCN(CC(=O)O)CC1; NH(1-deoxy-D-glucityl) = OC[C@@H](O)[C@@H](O)[C@H](O)[C@@H](O)CN*; X21 = O=C(CCP(=O)(O)CN1CCN(CP(=O)(O)CO)CCN(CP(=O)(O)CO)CC1)*; Pro(trans-4-NH2) = O=C([C@@H]1C[C@@H](N[*:3])CN1[*:1])[*:2]; DOTA = O=C(O)CN1CCN(CC(=O)O)CCN(CC(=O)*)CCN(CC(=O)O)CC1; Trp(5-Cl) = N[C@@H](Cc1c[nH]c2ccc(Cl)cc12)C(=O)O; Pyridine(2,6-diCH2) = c1cc(C[*:1])nc(C[*:2])c1; Trp(5-F) = N[C@@H](Cc1c[nH]c2ccc(F)cc12)C(=O)O; Pro(4R-NH2) = N[C@H]1CN[C@H](C(=O)O)C1; 1Nal = N[C@@H](Cc1cccc2ccccc12)C(=O)O; mXylylene = c1cc(C[*:1])cc(C[*:2])c1; Glutaryl = O=C(CCCC(=O)[*:2])[*:1]; X6 = c1cc(CSCCN[*:2])nc(C[*:1])c1; X7 = c1cc(CSCCN[*:2])cc(C[*:1])c1; Cya = N[C@@H](CS(=O)(=O)O)C(=O)O; Hyp = O=C(O)[C@@H]1C[C@@H](O)CN1; X1 = O=C(CN1CCC(N[*:1])CC1)[*:2]; Pen = CC(C)(S)[C@H](N)C(=O)O; Suc = O=C(CCC(=O)[*:2])[*:1]; hLeu = CC(C)CC[C@H](N)C(=O)O; Api = NC1(C(=O)O)CCNCC1; Aib = CC(C)(N)C(=O)O; ξP = O=C(O)C1CCCN1

Biological target: T1, GIPR (CHO-K1-hGIPR cells) (Homo sapiens, UniProt P48546)
T1 construct: host or cells: CHO-K1
T1 sequence (P48546 22-466): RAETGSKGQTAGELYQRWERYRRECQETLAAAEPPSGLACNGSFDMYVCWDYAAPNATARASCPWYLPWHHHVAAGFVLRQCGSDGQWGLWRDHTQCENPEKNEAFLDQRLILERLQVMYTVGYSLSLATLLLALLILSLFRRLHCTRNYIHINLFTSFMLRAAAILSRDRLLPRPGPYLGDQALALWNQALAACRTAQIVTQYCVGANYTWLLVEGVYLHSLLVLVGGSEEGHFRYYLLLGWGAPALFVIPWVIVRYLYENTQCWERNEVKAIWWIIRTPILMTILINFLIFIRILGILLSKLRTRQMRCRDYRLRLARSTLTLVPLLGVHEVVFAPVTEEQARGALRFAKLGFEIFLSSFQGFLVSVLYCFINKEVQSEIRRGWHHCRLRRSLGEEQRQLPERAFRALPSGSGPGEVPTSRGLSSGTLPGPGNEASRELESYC
Test: FACS binding assay
Details: for IC50: read-out: pIC50 Category (converted)
Summary of the method: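 CHO-K1 cells stably expressing human GIPR were detached with Accutase, suspended at 500.000 cells per mL in PBS with 1% FCS, and washed ice-cold. Bound peptide was detected with 1 μg/mL APC-streptavidin for 30 min on ice.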

[1] = competition with 20 nM GIP-057, 4° C., 1 hour
[2] = competition with 20 nM GIP-057, 4° C. for 1 hour

SMILES	IC50 [1] [nM]	IC50 [2] [nM]	other results
CC[C@H](C)[C@@H]1NC(=O)[C@H](CC(C)C)NC(=O)C(C)(C)NC(=O)[C@@H](NC(=O)[C@@H](CC(C)C)NC(=O)[C@H](CCC(=O)O)NC(=O)[C@@H]2CCCN2C(=O)[C@H](Cc2c[nH]c3ccc(F)cc23)NC(=O)[C@H](Cc2c[nH]c3ccccc23)NC(=O)[C@H](CC(=O)O)NC(C)=O)CSCc2cccc(c2)CSC[C@@H](C(=O)NCCCOCCOCCOCCCNC(=O)CCC(=O)N[C@@H](CCCCNC(=O)CN2CCN(CC(=O)O)CCN(CC(=O)O)CCN(CC(=O)O)CC2)C(N)=O)NC1=O [GIP-081, Ac-Asp-Trp-5Fw-Pro-Glu-leu-[Cys(3MeBn)-Aib-Leu-Ile-Cys]-Ttds-Lys(DOTA)-NH2] (Ac-DW[Trp(5-F)]PE[dL]C[Aib]LIC-X5; linker 7-11 via mXylylene)	< 10	–	–
CC[C@H](C)[C@@H]1NC(=O)[C@@H](NC(=O)[C@H](Cc2c[nH]c3ccccc23)NC(=O)[C@H](CC(=O)O)NC(=O)[C@@H](CC(C)C)NC(=O)[C@H](CCC(=O)O)NC(=O)C2CCCN2C(=O)[C@H](Cc2c[nH]c3ccc(Cl)cc23)NC(=O)CCC(=O)NCCCOCCOCCOCCCNC(=O)CN2CCN(CC(=O)O)CCN(CC(=O)O)CCN(CC(=O)O)CC2)CSCc2cccc(c2)CSCCNC(=O)C(C)(C)NC(=O)[C@H](CC(C)C)NC1=O (stereo partly drawn) [GIP-306, DOTA-Ttds-5Clw-Pro-Glu-leu-Asp-Trp-[Cys(3MeBn)-Ile-Leu-Aib-AET]] ({X3-Suc}-[Trp(5-Cl)][ξP]E[dL]DWCIL[Aib]; linker 7-C via X7)	–	> 1000	–
CC[C@H](C)[C@@H]1NC(=O)[C@H](CC(C)C)NC(=O)C(C)(C)NC(=O)[C@@H](NC(=O)[C@H](CC(C)C)NC(=O)[C@H](CCC(=O)O)NC(=O)[C@@H]2CCCN2C(=O)[C@H](Cc2c[nH]c3ccccc23)NC(=O)[C@H](Cc2c[nH]c3ccccc23)NC(=O)[C@H](CC(=O)O)NC(C)=O)CSCc2cccc(c2)CSC(C)(C)[C@@H](C(N)=O)NC1=O [GIP-339, Ac-Asp-Trp-Trp-Pro-Glu-Leu-[Cys(3MeBn)-Aib-Leu-Ile-Pen]-NH2] (Ac-DWWPELC[Aib]LI[Pen]-NH2; linker 7-11 via mXylylene)	–	> 1000	–
CC[C@H](C)[C@@H]1NC(=O)[C@H](CC(C)C)NC(=O)C(C)(C)NC(=O)[C@@H](NC(=O)[C@@H](CC(C)C)NC(=O)[C@H](CCC(=O)O)NC(=O)[C@@H]2C[C@@H](O)CN2C(=O)[C@H](Cc2c[nH]c3ccc(Cl)cc23)NC(=O)CNC(=O)[C@H](CS(=O)(=O)O)NC(C)=O)CSCc2cccc(n2)CSCCNC1=O [GIP-316, Ac-Cya-Gly-5Clw-Hyp-Glu-leu-[Cys(2Lut)-Aib-Leu-Ile-AET]] (Ac-[Cya]G[Trp(5-Cl)][Hyp]E[dL]C[Aib]LI; linker 7-C via X6)	–	100 to 794	–
CC[C@H](C)[C@@H]1NC(=O)[C@H](CC(C)C)NC(=O)C2(CCN(C(=O)CCP(=O)(O)CN3CCN(CP(=O)(O)CO)CCN(CP(=O)(O)CO)CC3)CC2)NC(=O)[C@@H](NC(=O)[C@@H](CC(C)C)NC(=O)[C@H](CCC(=O)O)NC(=O)[C@@H]2C[C@@H](N)CN2C(=O)[C@H](Cc2c[nH]c3ccc(Cl)cc23)NC(=O)[C@H](Cc2c[nH]c3ccccc23)NC(=O)[C@H](CC(=O)O)NC(=O)CCCC(=O)NC[C@H](O)[C@@H](O)[C@H](O)[C@H](O)CO)CSCc2cccc(n2)CSC[C@@H](C(=O)NC2CCN(CC(=O)N[C@H](CCC(=O)NC[C@H](O)[C@@H](O)[C@H](O)[C@H](O)CO)C(N)=O)CC2)NC1=O [GIP-029, AGLU-Glutar-Asp-Trp-5Clw-Tap-Glu-leu-[Cys(2Lut)-Apc(NOPO)-Leu-Ile-Cys]-APAc-glu(AGLU)-NH2] ({NH(1-deoxy-D-glucityl)-Glutaryl}-DW[Trp(5-Cl)][Pro(4R-NH2)]E[dL]C[Api](X21)LIC[X1][dE](NH(1-deoxy-D-glucityl))-NH2; linker 7-11 via Pyridine(2,6-diCH2))	–	–	pIC50 (pIC50 Category, competition with 20 nM GIP-057, 4° C., 1 hour): > 8.00
CC[C@H](C)[C@@H]1NC(=O)[C@H](CC(C)C)NC(=O)C2(CCN(C(=O)CN3CCN(CC(=O)O)CCN(CC(=O)O)CCN(CC(=O)O)CC3)CC2)NC(=O)[C@@H](NC(=O)[C@@H](CC(C)C)NC(=O)[C@H](CCC(=O)O)NC(=O)[C@@H]2C[C@@H](N)CN2C(=O)[C@H](Cc2c[nH]c3ccc(Cl)cc23)NC(=O)[C@H](Cc2c[nH]c3ccccc23)NC(=O)CCC(=O)O)CSCc2cccc(n2)CSC[C@@H](C(=O)NC2CCN(CC(=O)N[C@H](CCC(=O)NC[C@H](O)[C@@H](O)[C@H](O)[C@H](O)CO)C(N)=O)CC2)NC1=O [GIP-023, HO-Succinyl-Trp-5Clw-Tap-Glu-leu-[Cys(2Lut)-Apc(DOTA)-Leu-Ile-Cys]-APAc-glu(AGLU)-NH2] (Suc-W[Trp(5-Cl)][Pro(4R-NH2)]E[dL]C[Api](DOTA)LIC[X1][dE](NH(1-deoxy-D-glucityl))-NH2; linker 6-10 via Pyridine(2,6-diCH2))	< 10	–	–
CC[C@H](C)[C@@H]1NC(=O)[C@H](CC(C)C)NC(=O)[C@@H](C)NC(=O)[C@@H](NC(=O)[C@H](CC(C)C)NC(=O)[C@H](CCC(=O)O)NC(=O)[C@@H]2CCCN2C(=O)[C@H](Cc2c[nH]c3ccccc23)NC(=O)[C@H](Cc2c[nH]c3ccccc23)NC(=O)CCC(=O)O)CSCc2cccc(c2)CSC[C@@H](C(N)=O)NC1=O [GIP-314, HO-Succinyl-Trp-Trp-Pro-Glu-Leu-[Cys(3MeBn)-ala-Leu-Ile-Cys]-NH2] (Suc-WWPELC[dA]LIC-NH2; linker 6-10 via mXylylene)	–	100 to 794	–
CC[C@H](C)[C@@H]1NC(=O)[C@H](CC(C)C)NC(=O)C2(CCN(C(=O)CN3CCN(CC(=O)O)CCN(CC(=O)O)CCN(CC(=O)O)CC3)CC2)NC(=O)[C@@H](NC(=O)[C@@H](CC(C)C)NC(=O)[C@H](CCC(=O)O)NC(=O)[C@@H]2C[C@@H](O)CN2C(=O)[C@H](Cc2c[nH]c3ccc(Cl)cc23)NC(=O)[C@H](Cc2c[nH]c3ccccc23)NC(=O)[C@H](CC(=O)O)NC(=O)CCC(=O)NCCCOCCOCCOCCCNC(=O)CN2CCN(CC(=O)O)CCN(CC(=O)O)CCN(CC(=O)O)CC2)CSCc2cccc(n2)CSC[C@@H](C(=O)N[C@@H](CCCCNC(=O)CN2CCN(CC(=O)O)CCN(CC(=O)O)CCN(CC(=O)O)CC2)C(N)=O)NC1=O [GIP-055, DOTA-Ttds-Asp-Trp-5Clw-Hyp-Glu-leu-[Cys(2Lut)-Apc(DOTA)-Leu-Ile-Cys]-Lys(DOTA)-NH2] ({X3-Suc}-DW[Trp(5-Cl)][Hyp]E[dL]C[Api](DOTA)LICK(DOTA)-NH2; linker 7-11 via Pyridine(2,6-diCH2))	< 10	–	–
CC[C@H](C)[C@@H]1NC(=O)[C@H](CC(C)C)NC(=O)C(C)(C)NC(=O)[C@@H](NC(=O)[C@H](CCC(C)C)NC(=O)[C@H](CCC(=O)O)NC(=O)[C@@H]2C[C@@H](NC(=O)CN3CCN(CC(=O)O)CCN(CC(=O)O)CCN(CC(=O)O)CC3)CN2C(=O)[C@H](Cc2cccc3ccccc23)NC(=O)[C@H](Cc2c[nH]c3ccccc23)NC(=O)[C@H](CC(=O)O)NC(C)=O)CSCc2cccc(c2)CSC[C@@H](C(N)=O)NC1=O [GIP-394, Ac-Asp-Trp-1Ni-Tap(DOTA)-Glu-Hle-[Cys(3MeBn)-Aib-Leu-Ile-Cys]-NH2] (Ac-DW[1Nal][Pro(trans-4-NH2)](DOTA)E[hLeu]C[Aib]LIC-NH2; linker 7-11 via mXylylene)	–	10 to 79.4	–
